The record followed here is patent US8729089B2 (Gilead Sciences, Inc., priority 2006, dated 2014).

Data set [1] in a line: CC50 assay (CellTiter-Glo) in Huh-7 HCV replicon cells. The class given is cell-based, human. Particulars: human, 3 days incubation, CellTiter-Glo readout. The method in brief: (§1)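 Cytotoxicity (CC50) measured by CellTiter-Glo and antiviral activity (EC50) by luciferase signal from lysed cells, both by luminescence. Replicon-bearing Huh-7 cells, 6000 per well, incubated 3 days at 37 °C with threefold-diluted compound (0.5% DMSO for DMSO-dissolved compounds).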
In general terms: In ATP-based viability assays light output follows the ATP content of the culture.

Data set [2] has as its system HCV replicon in human hepatoma Huh-7 cell line. Nature of the data set: Anti-HCV replicon assay (EC50, luciferase). Particulars: Hepatitis C virus, Huh-7, 72 h. The class given is cell-based. In short, it runs like this: as §1
For orientation: A replicon is a self-replicating genome or part of one, used to study replication in cells.

Structures are written as SMILES.

A word on the CC50: it is the concentration giving 50% cytotoxicity. The EC50 is the concentration giving half of the maximal effect. Low values mean an effect from little substance, high ones a need for much substance.

As to `CC(C)(N)C(=O)Nc1ccc(-c2ccc3nc(NCc4ccc(F)cc4)nc(NCC(F)(F)F)c3n2)cc1` [Example 277, 2-Amino-N-{4-[2-(4-fluoro-benzylamino)-4-(2,2,2-trifluoro-ethylamino)-pyrido[3,2-d]pyrimidin-6-yl]-phenyl}-2-methyl-propionamide], in data set [1], the CC50 at 3 days was under 5 µM. For the same compound, in data set [2], the EC50 was under 100 nM.
In the same order, the values of `CS(=O)(=O)Nc1cc(-c2ccc3nc(NCc4ccc(S(N)(=O)=O)cc4)nc(NCC(F)(F)F)c3n2)ccc1F` [Example 230, 4-{[6-(4-Fluoro-3-methanesulfonylamino-phenyl)-4-(2,2,2-trifluoro-ethylamino)-pyrido[3,2-d]pyrimidin-2-ylamino]-methyl}-benzenesulfonamide] are 5 to 25 µM and under 100 nM.
Compound `C[C@H](O)C(=O)Nc1ccc(-c2ccc3nc(NCc4ccc(S(N)(=O)=O)cc4)nc(NCC(F)(F)F)c3n2)cc1F` [Example 209, N-{2-Fluoro-4-[2-(4-sulfamoyl-benzylamino)-4-(2,2,2-trifluoro-ethylamino)-pyrido[3,2-d]pyrimidin-6-yl]-phenyl}-2-hydroxy-propionamide] showed a CC50 at 3 days in data set [1] of under 5 µM. In data set [2], this compound showed an EC50 of under 100 nM.
In the same order, the values of `CCOc1nc(NCc2ccc(F)c(F)c2)nc2ccc(-c3ccc(F)cc3)nc12` [Example 35, (3,4-Difluoro-benzyl)-[4-ethoxy-6-(4-fluoro-phenyl)-pyrido[3,2-d]pyrimidin-2-yl]-amine] are 5 to 25 µM and under 100 nM.
The like results for `NS(=O)(=O)c1ccc(CNc2nc(NC3CC3)c3nc(-c4ccc(NC(=O)C5(O)CC5)cc4)ccc3n2)cc1` [Example 181, 1-Hydroxy-cyclopropanecarboxylic acid {4-[4-cyclopropylamino-2-(4-sulfamoyl-benzylamino)-pyrido[3,2-d]pyrimidin-6-yl]-phenyl}-amide] were, in that order, under 5 µM and under 100 nM.
The like results for `CCOc1nc(NCCOC)nc2ccc(-c3ccc(F)cc3)nc12` [Example 264, [4-Ethoxy-6-(4-fluoro-phenyl)-pyrido[3,2-d]pyrimidin-2-yl]-(2-methoxy-ethyl)-amine] were, in that order, over 25 µM and under 100 nM.
In the case of `CCOc1nc(NCc2ccc(F)cc2)nc2ccc(-c3ccc(NC(=O)[C@@H]4CCCN4)cc3)nc12` [Example 89, Pyrrolidine-2-carboxylic acid {4-[4-ethoxy-2-(4-fluoro-benzylamino)-pyrido[3,2-d]pyrimidin-6-yl]-phenyl}-amide], in data set [1], the CC50 at 3 days is under 5 µM. The compound further displayed an EC50 in data set [2] of under 100 nM.
In the same order, the values of `Fc1ccc(CNc2nc(NCc3cccnc3)c3nc(-c4ccc(F)cc4)ccc3n2)cc1` [Example 31, N2-(4-Fluoro-benzyl)-6-(4-fluoro-phenyl)-N4-pyridin-3-ylmethyl-pyrido[3,2-d]pyrimidine-2,4-diamine] are 5 to 25 µM and under 100 nM.
The like results for `NS(=O)(=O)c1ccc(CNc2nc(NCC(F)(F)F)c3nc(-c4cnc(N5CCCC5)cn4)ccc3n2)cc1` [Example 167, 4-{[6-(5-Pyrrolidin-1-yl-pyrazin-2-yl)-4-(2,2,2-trifluoro-ethylamino)-pyrido[3,2-d]pyrimidin-2-ylamino]-methyl}-benzenesulfonamide] were, in that order, under 5 µM and under 100 nM.
In the same order, the values of `NS(=O)(=O)c1ccc(CNc2nc(NCC(F)(F)F)c3nc(-c4ccc(NC(=O)OCCN5CCCC5)cc4)ccc3n2)cc1` [Example 223, {4-[2-(4-Sulfamoyl-benzylamino)-4-(2,2,2-trifluoro-ethylamino)-pyrido[3,2-d]pyrimidin-6-yl]-phenyl}-carbamic acid 2-pyrrolidin-1-yl-ethyl ester] are 5 to 25 µM and under 100 nM.
Consider `CC(C)Nc1cnn(-c2ccc3nc(NCc4ccc(S(N)(=O)=O)cc4)nc(NCC(F)(F)F)c3n2)c1` [Example 284, 4-{[6-(4-Isopropylamino-pyrazol-1-yl)-4-(2,2,2-trifluoro-ethylamino)-pyrido[3,2-d]pyrimidin-2-ylamino]-methyl}-benzenesulfonamide], for which the CC50 at 3 days in data set [1] is over 25 µM. Besides, in data set [2], the EC50 is under 100 nM.
In the same order, the values of `CN(C)C(=O)c1ccc(CNc2nc(NCC(F)(F)F)c3nc(-c4ccc(F)cc4)ccc3n2)cc1` [Example 242, 4-{[6-(4-Fluoro-phenyl)-4-(2,2,2-trifluoro-ethylamino)-pyrido[3,2-d]pyrimidin-2-ylamino]-methyl}-N,N-dimethyl-benzamide] are over 25 µM and under 100 nM.
In the same order, the values of `CCOc1nc(NCc2ccc(S(N)(=O)=O)cc2)nc2ccc(-c3ccc(NC(=O)[C@@H](N)CO)cc3)nc12` [Example 137, (S)-4-{[4-Ethoxy-6-(4-((2-hydroxy-1-aminoethyl)-carboxamido)-phenyl)-pyrido[3,2-d]pyrimidin-2-ylamino]-methyl}-benzenesulfonamide] are 5 to 25 µM and under 100 nM.
In the same order, the values of `Fc1ccc(CNc2nc(NCCN3CCOCC3)c3nc(-c4ccc(F)cc4)ccc3n2)cc1` [Example 32, N2-(4-Fluoro-benzyl)-6-(4-fluoro-phenyl)-N4-(2-morpholin-4-yl-ethyl)-pyrido[3,2-d]pyrimidine-2,4-diamine] are 5 to 25 µM and under 100 nM.
As for `C[C@H](O)C(=O)Nc1ccc(-c2ccc3nc(NCc4ccc(S(N)(=O)=O)cc4)nc(NCC(F)(F)F)c3n2)cc1Cl` [Example 208, N-{2-Chloro-4-[2-(4-sulfamoyl-benzylamino)-4-(2,2,2-trifluoro-ethylamino)-pyrido[3,2-d]pyrimidin-6-yl]-phenyl}-2-hydroxy-propionamide], the CC50 at 3 days in data set [1] lay within 5 to 25 µM. The compound also came in with an EC50 in data set [2] of under 100 nM.
In the same order, the values of `NS(=O)(=O)c1ccc(CNc2nc(C3CC3)c3nc(-c4ccc(F)c(S(N)(=O)=O)c4)ccc3n2)cc1` [Example 289, 5-[4-Cyclopropyl-2-(4-sulfamoyl-benzylamino)-pyrido[3,2-d]pyrimidin-6-yl]-2-fluoro-benzenesulfonamide] are 5 to 25 µM and under 100 nM.
The like results for `Fc1ccc(-c2ccc3nc(NCc4ccc(-c5csnn5)cc4)nc(NCC(F)(F)F)c3n2)cc1` [Example 245, 6-(4-Fluoro-phenyl)-N2-(4-[1,2,3]thiadiazol-4-yl-benzyl)-N4-(2,2,2-trifluoro-ethyl)-pyrido[3,2-d]pyrimidine-2,4-diamine] were, in that order, over 25 µM and under 100 nM.
`CCOc1nc(NCc2ccc(S(N)(=O)=O)cc2)nc2ccc(-c3ccc(F)c(S(N)(=O)=O)c3)nc12` [Example 145, 5-[4-Ethoxy-2-(4-sulfamoyl-benzylamino)-pyrido[3,2-d]pyrimidin-6-yl]-2-fluoro-benzenesulfonamide]: the CC50 at 3 days in data set [1] fell in the range of 5 to 25 µM. Further, the EC50 in data set [2] is under 100 nM.
In the same order, the values of `CCOc1nc(NCc2ccc(F)cc2)nc2ccc(-c3ccc(NC(=O)[C@H]4CCNC4)cc3)nc12` [Example 91, Pyrrolidine-3-carboxylic acid {4-[4-ethoxy-2-(4-fluoro-benzylamino)-pyrido[3,2-d]pyrimidin-6-yl]-phenyl}-amide] are under 5 µM and under 100 nM.
In data set [1], `CCOc1nc(NCc2ccc(F)cc2)nc2ccc(-c3ccc(C(=O)NC(C)(C)CO)cc3)nc12` [Example 94, 4-[4-Ethoxy-2-(4-fluoro-benzylamino)-pyrido[3,2-d]pyrimidin-6-yl]-N-(2-hydroxy-1,1-dimethyl-ethyl)-benzamide] returned a CC50 at 3 days of 5 to 25 µM. Further, the EC50 in data set [2] is under 100 nM.
The like results for `C[C@H](N)C(=O)Nc1ccc(-c2ccc3nc(NCc4ccc(S(N)(=O)=O)cc4)nc(NCC(F)(F)F)c3n2)cc1` [Example 221, 2-Amino-N-{4-[2-(4-sulfamoyl-benzylamino)-4-(2,2,2-trifluoro-ethylamino)-pyrido[3,2-d]pyrimidin-6-yl]-phenyl}-propionamide] were, in that order, over 25 µM and under 100 nM.
On to `CCOc1nc(NCc2ccc(F)cc2)nc2ccc(-c3ccc(N4CC(O)CC4=O)cc3)nc12` (stereo not shown) [Example 76, 1-{4-[4-Ethoxy-2-(4-fluoro-benzylamino)-pyrido[3,2-d]pyrimidin-6-yl]-phenyl}-4-hydroxy-pyrrolidin-2-one], for which the CC50 at 3 days in data set [1] lay within 5 to 25 µM. The EC50 in data set [2] is under 100 nM.
In the case of `N[C@@H](CO)C(=O)Nc1ccc(-c2ccc3nc(NCc4ccc(S(N)(=O)=O)cc4)nc(NCC(F)(F)F)c3n2)cc1` [Example 156, (S)-4-{[4-(2,2,2-Trifluoroethyl)-amino-6-(4-((2-hydroxy-1-aminoethyl)-carboxamido)-phenyl)-pyrido[3,2-d]pyrimidin-2-ylamino]-methyl}-benzenesulfonamide], in data set [1], the CC50 at 3 days was under 5 µM. This compound showed an EC50 in data set [2] of under 100 nM.
The like results for `NS(=O)(=O)c1ccc(CNc2nc(NCC(F)(F)F)c3nc(-c4cccc(S(N)(=O)=O)c4)ccc3n2)cc1` [Example 232, 3-[2-(4-sulfamoyl-benzylamino)-4-(2,2,2-trifluoro-ethylamino)-pyrido[3,2-d]pyrimidin-6-yl]-benzenesulfonamide] were, in that order, over 25 µM and under 100 nM.
The like results for `CCOc1nc(NCc2ccc(S(N)(=O)=O)cc2)nc2ccc(-c3ccc(NC(=O)N4CCCC4)cc3)nc12` [Example 129, 4-{[4-Ethoxy-6-(4-(pyrrolidine-1-carboxamido)-phenyl)-pyrido[3,2-d]pyrimidin-2-ylamino]-methyl}-benzenesulfonamide] were, in that order, over 25 µM and under 100 nM.
In data set [1], `CC(Nc1nc(NCC(F)(F)F)c2nc(-c3ccc(F)cc3)ccc2n1)c1ccc(-n2cncn2)cc1` (stereo not shown) [Example 255, 6-(4-Fluoro-phenyl)-N2-[1-(4-[1,2,4]triazol-1-yl-phenyl)-ethyl]-N4-(2,2,2-trifluoro-ethyl)-pyrido[3,2-d]pyrimidine-2,4-diamine] returned a CC50 at 3 days of 5 to 25 µM. In data set [2], the EC50 is under 100 nM.
